Tests used:
Type in all cases: biochemical
[1] = biological target: T1, Hordeum HPPD (SEQ ID: 1/2) (Hordeum vulgare, UniProt O48604, A164G/R146V/R147D/R148G); assay: HPPD activity assay, wildtype Hordeum HPPD; settings: for Ki: Cheng-Prusoff from IC50, read-out: Ki (dissociation constant); for TI (tolerance index): not normalized
T1 construct: His6; made in house; host or cells: E. coli BL21 (DE3)
Protocol: (§1) HPPD produces homogentisic acid and CO2 from 4-hydroxyphenylpyruvate (4-HPP) and O2. The activity assay for HPPD is based on the analysis of homogentisic acid by reversed phase HPLC.
(§2) The assay mixture can contain 150 mM potassium phosphate buffer pH 7.0, 50 mM L-ascorbic acid, 1 μM FeSO4 and 7 μg of purified enzyme in a total volume of 1 ml. Inhibitors are dissolved in DMSO (dimethylsulfoxide) to a concentration of 20 mM or 0.5 mM, respectively. From this stock solution serial five-fold dilutions are prepared in DMSO, which are used in the assay. The respective inhibitor solution accounts for 1% of the assay volume. Thus, final inhibitor concentrations range from 200 μM to 2.5 nM or from 5 μM to 63 pM, respectively. After a preincubation of 30 min the reaction is started by adding 4-HPP to a final concentration of 0.1 mM. The reaction is allowed to proceed for 120 min at room temperature. The reaction is stopped by addition of 100 μl of 4.5 M phosphoric acid.
Activities are normalized by setting the uninhibited enzyme activity to 100%. […] values are calculated using non-linear regression.
The assay mixture can contain 150 mM potassium phosphate buffer pH 7.0, 50 mM L-ascorbic acid, 100 μM Catalase (Sigma-Aldrich), 1 μM FeSO4 and 0.2 units of purified HPPD enzyme in a total volume of 505 μl. 1 unit is defined as the amount of enzyme that is required to produce 1 nmol of HGA per minute at 20° C.
Inhibitors are dissolved in DMSO (dimethylsulfoxide) to a concentration of 0.5 mM. From this stock solution serial five-fold dilutions are prepared in DMSO, which are used in the assay. The respective inhibitor solution accounts for 1% of the assay volume. Thus, final inhibitor concentrations range from 5 μM to 320 pM, respectively. Activities are normalized by setting the uninhibited enzyme activity to 100%. IC50 values are calculated using non-linear regression.
Using methods which are described in the above examples or well known in the art, purified, recombinant wildtype HPPD enzymes are characterized with respect to their kinetic properties and sensitivity towards HPPD inhibiting herbicides. Apparent michaelis constants (Km) and maximal reaction velocities (Vmax) are calculated by non-linear regression with the software GraphPad Prism 5 (GraphPad Software, La Jolla, USA) using a substrate inhibition model. Apparent kcat values are calculated from Vmax assuming 100% purity of the enzyme preparation. Weighted means (by standard error) of Km and […] values are calculated from at least three independent experiments. The Cheng-Prusoff equation for competitive inhibition (Cheng, Y. C.; Prusoff, W. H. Biochem Pharmacol 1973, 22, 3099-3108) is used to calculate dissociation constants (Ki).
Field performance of the HPPD enzyme, which is used as a herbicide tolerance trait may depend not only on its lack of sensitivity towards HPPD inhibiting herbicides but also on its activity. To assess the potential performance of a herbicide tolerance trait a tolerance index (TI) is calculated using the following formula: […]
Easy comparison and ranking of each trait is enabled by normalizing every tolerance index on Hordeum HPPD.

Avena HPPD = assay: HPPD activity assay, Avena HPPD; settings: normalized on Hordeum HPPD
Protocol: as §1
(§3) The assay mixture can contain 150 mM potassium phosphate buffer pH 7.0, 50 mM L-ascorbic acid, 1 μM FeSO4 and 7 μg of purified enzyme in a total volume of 1 ml. Inhibitors are dissolved in DMSO (dimethylsulfoxide) to a concentration of 20 mM or 0.5 mM, respectively. From this stock solution serial five-fold dilutions are prepared in DMSO, which are used in the assay. The respective inhibitor solution accounts for 1% of the assay volume. […]
(§4) Activities are normalized by setting the uninhibited enzyme activity to 100%. […] values are calculated using non-linear regression. […]
(§5) Inhibitors are dissolved in DMSO (dimethylsulfoxide) to a concentration of 0.5 mM. […] IC50 values are calculated using non-linear regression.
(§6) Using methods which are described in the above examples or well known in the art, purified, recombinant wildtype HPPD enzymes are characterized with respect to their kinetic properties and sensitivity towards HPPD inhibiting herbicides. Apparent michaelis constants (Km) and maximal reaction velocities (Vmax) are calculated by non-linear regression with the software GraphPad Prism 5 (GraphPad Software, La Jolla, USA) using a substrate inhibition model. […]

Blepharisma HPPD = assay: HPPD activity assay, Blepharisma HPPD; settings: normalized on Hordeum HPPD
Protocol: as §1, §3, §4, §5, §6

Rhodococcus HPPD2 = assay: HPPD activity assay, Rhodococcus HPPD2; settings: normalized on Hordeum HPPD
Protocol: as §1, §3, §4, §5, §6

[2] = biological target: T2, Hordeum HPPD variant G407C (Hordeum vulgare, UniProt O48604, A164G/G407C/R146V/R147D/R148G); assay: HPPD activity assay, Hordeum HPPD mutant G407C; settings: normalized on wildtype
T2 construct: His6; made in house; host or cells: E. coli BL21 (DE3)
T2 sequence (O48604 whole entry R146V/R147D/R148G/A164G/G407C): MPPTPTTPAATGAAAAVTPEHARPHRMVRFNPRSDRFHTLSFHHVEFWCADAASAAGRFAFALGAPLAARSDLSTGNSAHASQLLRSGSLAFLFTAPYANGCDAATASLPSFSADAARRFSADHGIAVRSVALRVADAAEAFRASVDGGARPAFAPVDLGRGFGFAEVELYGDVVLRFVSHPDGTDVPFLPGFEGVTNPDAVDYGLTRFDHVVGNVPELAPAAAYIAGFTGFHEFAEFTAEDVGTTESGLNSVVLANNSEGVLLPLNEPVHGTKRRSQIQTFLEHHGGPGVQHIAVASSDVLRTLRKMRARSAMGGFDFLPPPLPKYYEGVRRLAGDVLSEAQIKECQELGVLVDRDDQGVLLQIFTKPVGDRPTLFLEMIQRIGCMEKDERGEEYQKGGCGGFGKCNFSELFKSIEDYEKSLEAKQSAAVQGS
Protocol: as §1
as §2, with “The reaction is allowed to proceed for 120 min at room temperature. The reaction is stopped by addition of 100 μl of 4.5 M phosphoric acid.” left out
as §5
(§7) Purified, mutant HPPD enzymes are obtained by the methods described above. […] Apparent michaelis constants (Km) and maximal reaction velocities (Vmax) are calculated by non-linear regression with the software GraphPad Prism 5 (GraphPad Software, La Jolla, USA) using a substrate inhibition model. […] Weighted means (by standard error) of Km and […] values are calculated from at least three independent experiments. […]

[3] = biological target: T3, Hordeum HPPD variant L334E (Hordeum vulgare, UniProt O48604, A164G/L334E/R146V/R147D/R148G); assay: HPPD activity assay, Hordeum HPPD mutant L334E; settings: normalized on wildtype
T3 construct: His6; made in house; host or cells: E. coli BL21 (DE3)
T3 sequence (O48604 whole entry R146V/R147D/R148G/A164G/L334E): as the sequence (O48604 whole entry R146V/R147D/R148G/A164G/G407C) above, with L334E, C407G counted along it
Protocol: as §1
as §2, with “The reaction is allowed to proceed for 120 min at room temperature. The reaction is stopped by addition of 100 μl of 4.5 M phosphoric acid.” left out
as §5, §7

[4] = biological target: T4, Hordeum HPPD variant L353M, P321R, L320N (Hordeum vulgare, UniProt O48604, L320N/L353M/P321R); assay: HPPD activity assay, Hordeum HPPD mutant L353M, P321R, L320N; settings: normalized on wildtype
T4 construct: His6; made in house; host or cells: E. coli BL21 (DE3)
T4 sequence (O48604 whole entry R146V/R147D/R148G/A164G/L320N/P321R/L353M): as the sequence (O48604 whole entry R146V/R147D/R148G/A164G/G407C) above, with L320N, P321R, L353M, C407G counted along it
Protocol: as §1
as §2, with “The reaction is allowed to proceed for 120 min at room temperature. The reaction is stopped by addition of 100 μl of 4.5 M phosphoric acid.” left out
as §5, §7

[5] = biological target: T5, Hordeum HPPD variant L353M, P321R, V212I (Hordeum vulgare, UniProt O48604, L353M/P321R/V212I); assay: HPPD activity assay, Hordeum HPPD mutant L353M, P321R, V212I; settings: normalized on wildtype
T5 construct: His6; made in house; host or cells: E. coli BL21 (DE3)
T5 sequence (O48604 whole entry R146V/R147D/R148G/A164G/V212I/P321R/L353M): as the sequence (O48604 whole entry R146V/R147D/R148G/A164G/G407C) above, with V212I, P321R, L353M, C407G counted along it
Protocol: as §1
as §2, with “The reaction is allowed to proceed for 120 min at room temperature. The reaction is stopped by addition of 100 μl of 4.5 M phosphoric acid.” left out
as §5, §7

[6] = biological target: T6, Hordeum HPPD variant L353M, P321R, V212I, L334E (Hordeum vulgare, UniProt O48604, L334E/L353M/P321R/V212I); assay: HPPD activity assay, Hordeum HPPD mutant L353M, P321R, V212I, L334E; settings: normalized on wildtype
T6 construct: His6; made in house; host or cells: E. coli BL21 (DE3)
T6 sequence (O48604 whole entry R146V/R147D/R148G/A164G/V212I/P321R/L334E/L353M): as the sequence (O48604 whole entry R146V/R147D/R148G/A164G/G407C) above, with V212I, P321R, L334E, L353M, C407G counted along it
Protocol: as §1
as §2, with “The reaction is allowed to proceed for 120 min at room temperature. The reaction is stopped by addition of 100 μl of 4.5 M phosphoric acid.” left out
as §5, §7

[7] = biological target: T7, Hordeum HPPD variant V212L (Hordeum vulgare, UniProt O48604, A164G/R146V/R147D/R148G/V212L); assay: HPPD activity assay, Hordeum HPPD mutant V212L; settings: normalized on wildtype
T7 construct: His6; made in house; host or cells: E. coli BL21 (DE3)
T7 sequence (O48604 whole entry R146V/R147D/R148G/A164G/V212L): as the sequence (O48604 whole entry R146V/R147D/R148G/A164G/G407C) above, with V212L, C407G counted along it
Protocol: as §1
as §2, with “The reaction is allowed to proceed for 120 min at room temperature. The reaction is stopped by addition of 100 μl of 4.5 M phosphoric acid.” left out
as §5, §7

[8] = biological target: T8, Hordeum HPPD variant L320Q (Hordeum vulgare, UniProt O48604, A164G/L320Q/R146V/R147D/R148G); assay: HPPD activity assay, Hordeum HPPD mutant L320Q; settings: normalized on wildtype
T8 construct: His6; made in house; host or cells: E. coli BL21 (DE3)
T8 sequence (O48604 whole entry R146V/R147D/R148G/A164G/L320Q): as the sequence (O48604 whole entry R146V/R147D/R148G/A164G/G407C) above, with L320Q, C407G counted along it
Protocol: as §1
as §2, with “The reaction is allowed to proceed for 120 min at room temperature. The reaction is stopped by addition of 100 μl of 4.5 M phosphoric acid.” left out
as §5, §7

[9] = biological target: T9, Hordeum HPPD variant L320H, P321A (Hordeum vulgare, UniProt O48604, L320H/P321A); assay: HPPD activity assay, Hordeum HPPD mutant L320H, P321A; settings: normalized on wildtype
T9 construct: His6; made in house; host or cells: E. coli BL21 (DE3)
T9 sequence (O48604 whole entry R146V/R147D/R148G/A164G/L320H/P321A): as the sequence (O48604 whole entry R146V/R147D/R148G/A164G/G407C) above, with L320H, P321A, C407G counted along it
Protocol: as §1
as §2, with “The reaction is allowed to proceed for 120 min at room temperature. The reaction is stopped by addition of 100 μl of 4.5 M phosphoric acid.” left out
as §5, §7

[10] = Hordeum HPPD Wild-type, normalized on wildtype (Table 10)
[11] = Hordeum HPPD, normalized on Hordeum HPPD (Table 7)

T1 sequence (O48604 whole entry R146V/R147D/R148G/A164G): as the sequence (O48604 whole entry R146V/R147D/R148G/A164G/G407C) above, with C407G counted along it

Row | SMILES | Normalized tolerance index (TI) [1, 10] | Ki ([1]; Hordeum HPPD) | Normalized tolerance index (TI) [1, 11] | TI (tolerance index) ([1]; Hordeum HPPD) | Normalized tolerance index (TI) (Avena HPPD) | Normalized tolerance index (TI) (Blepharisma HPPD) | Normalized tolerance index (TI) (Rhodococcus HPPD2) | Normalized tolerance index (TI) [2] | Normalized tolerance index (TI) [3] | Normalized tolerance index (TI) [4] | Normalized tolerance index (TI) [5] | Normalized tolerance index (TI) [6] | Normalized tolerance index (TI) [7] | Normalized tolerance index (TI) [8] | Normalized tolerance index (TI) [9]
1 | O=S1(=O)C(c2c(Cl)cc(Cl)nc2Cl)=C(O)c2ncccc2N1CC(F)F [Inhibitor 2, 1-(2,2-difluoroethyl)-2,2-dioxo-3-(2,4,6-trichloro-3-pyridyl)pyrido[3,2-c]thiazin-4-ol] | 1 | 2.6 nM | 1 | 1.13E−3 | 5.2 | 4.9 | 20.5 | 3.2 | 2.2 | 3 | 3 | 3.8 | 0.5 | 1.8 | 3.7
2 | CC1=NOC(c2c(Cl)ccc(C3=C(O)c4ncccc4N(CC(F)F)S3(=O)=O)c2Cl)C1 (stereo not drawn) [Inhibitor 1, 3-[2,4-dichloro-3-(3-methyl-4,5-dihydroisoxazol-5-yl)phenyl]-1-(2,2-difluoroethyl)-2,2-dioxo-pyrido[3,2-c]thiazin-4-ol] | 1 | 2.7 nM | 1 | 1.19E−3 | 7.4 | 6.3 | 73.9 | 1.6 | 3.8 | 2.5 | 2.3 | 2.4 | 2.6 | 3.4 | 6.5

Source: patent publication US10801035B2, “Plants having increased tolerance to herbicides” (BASF SE, priority 2011, dated 2020)
